According to patent EP0812190B1 (priority 1993, dated 1995):
Where two headings read alike, the source gives them in different places.

Legend:
[1] = test system: passive avoidance response
Protocol: [R] (+)PAI or [S] (-)PAI were administered according to one of the following protocols.
Protocol A - Nursing mothers were given a dose of either isomer of 1-1.5 mg/kg/day in drinking water until weaning at 21 days. Following that, the weaned offsprings were directly treated with the same dose for 20 days. Treatment was terminated at 40 days and the test was performed at 60 days, that is 20 days after the last dose of the drug.
Protocol B - The dose was reduced to 0.5 mg/kg/day administered to the nursing mother until weaning at 21 days, then directly to the young rats to 60 days at which time the test was performed. ,
Passive Avoidance Test - The apparatus consisted of a lit chamber adjoining a dark chamber and a sliding door separating the two. At training, a rat was placed in the lit chamber for 30 seconds, and then the door was opened. The rat moved to the dark chamber with a latency that was recorded. Upon entry of the rat into the dark compartment, the door was closed and a 0.3 mA foot-shock was delivered for 3 seconds.

MAO-B [2] = molecular target: T1, MAO-B (Rattus norvegicus, UniProt P19643); details: 1 mg/kg i.p. single dose; whole brain
T1 sequence (P19643 1-520): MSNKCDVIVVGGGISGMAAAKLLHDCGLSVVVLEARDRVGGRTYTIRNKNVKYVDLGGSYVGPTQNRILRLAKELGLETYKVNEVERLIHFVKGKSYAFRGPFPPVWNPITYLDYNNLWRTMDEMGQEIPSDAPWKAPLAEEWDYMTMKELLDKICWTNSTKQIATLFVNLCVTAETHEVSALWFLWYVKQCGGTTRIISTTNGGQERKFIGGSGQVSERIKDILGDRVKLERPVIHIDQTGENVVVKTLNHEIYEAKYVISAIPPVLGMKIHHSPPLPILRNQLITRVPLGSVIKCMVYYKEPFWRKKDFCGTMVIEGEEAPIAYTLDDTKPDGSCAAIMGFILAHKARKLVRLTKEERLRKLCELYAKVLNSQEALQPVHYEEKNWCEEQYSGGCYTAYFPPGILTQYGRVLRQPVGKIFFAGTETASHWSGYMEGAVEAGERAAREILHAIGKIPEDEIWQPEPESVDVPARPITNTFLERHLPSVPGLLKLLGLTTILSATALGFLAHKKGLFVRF
Protocol: Activity of MAO-B was determined in whole brain tissues as described hereinabove.

MAO-B [3] = molecular target: T1, MAO-B; assay: in vivo; details: for ED50 / inhibition at 0.5 mg/kg: rat
Protocol: Groups of three rats were used for each dose level of inhibitor, and MAO activity determined in brain and liver using the general technique described above. The amount of protein in each incubation was determined using the Folin-Lowry method, and enzyme activity calculated as nmol of substrate metabolized per hour of incubation for each mg of protein. Activity of MAO in tissues from animals treated with inhibitors was expressed as a percentage of the enzyme activity in a group of control animals administered vehicle (water for oral administration, 0.9% saline for ip injection) and killed as above.

rabbit jejunum = assay: Tyramine potentiation in rabbit jejunum preparation
guinea-pig ileum [4] = assay: tissue or blood; details: Cavia porcellus, read-out: Percent relaxation
[5] = test system: MPTP-induced striatal dopamine depletions; assay: Suppression of MPTP-induced dopaminergic toxicity (striatal DA and DOPAC); type: in vivo, mice; details: striatum
Protocol: Brains were removed and corpora striata dissected on an ice-cold glass plate and frozen on dry ice. Striatal tissues were homogenized in 0.1 M perchloric acid, and deproteinized aliquots containing dihydroxybenzylamine as an internal standard were assayed for dopamine and its major metabolite 3,4-dihydroxy-phenylacetic acid (DOPAC) using HPLC with electrochemical detection.

MAO-B [6] = molecular target: T1, MAO-B; assay: in vivo; details: po, read-out: inhibition of brain MAO-B
Protocol: (+)PAI or the racemic mixture at three dose levels (0.05, 0.1 and 0.5mg/kg) by oral administration, one dose daily for 21 days, and decapitated 2 hours after the last dose.

guinea-pig ileum [7] = assay: tissue or blood; details: Cavia porcellus, read-out: Percent relaxation; remark: listed apart in the source
guinea-pig ileum [8] = test system: guinea-pig ileum
guinea-pig ileum [9] = details: bethanechol 0.8 µM; PAI HCl 20 µM
[10] = test system: amphetamine-induced stereotype behavior; details: 0.5 mg/kg/day in drinking water, lateral head movements over 1 minute
Protocol: The extent of this behavior is rated in accordance with the number of lateral head movements over a period of 1 minute.
Following that, amphetamine was injected s.c. at a dose of 0.5 mg/kg. 45 minutes later, lateral head movements were counted.

[11] = Protocol A, Anoxia-lesioned rats
[12] = Protocol B, Anoxia-lesioned rats

SMILES: C#CCN[C@@H]1CCc2ccccc21 [[R](+)PAI, R(+)-N-propargyl-1-aminoindan]
- latency After Electroshock [1, 11]: 239 ± 99 s
- latency Before Electroshock [1, 11]: 49 ± 10 s
- percent increase of latency After Electroshock ([1]; Protocol A, Anoxia-lesioned rats, versus corresponding anoxia group): 19%
- latency After Electroshock ([1]; Protocol A, Control rats): 220 ± 100 s
- percent increase of latency After Electroshock ([1]; Protocol A, Control rats, versus corresponding control group): +9%
- latency Before Electroshock ([1]; Protocol B (0.5 mg/kg/day), Control rats): 48 ± 11 s
- latency After Electroshock [1, 12]: 137 ± 126 s
- latency Before Electroshock [1, 12]: 52 ± 12 s
- percent increase of latency After Electroshock [1, 12]: +15%
- latency After Electroshock ([1]; Protocol B, Control rats): 128 ± 119 s
- percent increase of latency After Electroshock ([1]; Protocol B, Control rats): +23%
- time of maximal inhibition of MAO-B after injection (MAO-B [2]): 6 h
- inhibition of MAO-B in brain and liver (MAO-B [3]; dose of 1mg/kg): complete inhibition
- ED50 (MAO-B [3]; ip, 1 h, read-out: IC-50 MAO-B I.P. BRAIN): 0.07 mg/kg
- ED50 (MAO-B [3]; ip, 1 h, read-out: IC-50 MAO-B I.P. LIVER): 0.06 mg/kg
- inhibition at 0.5 mg/kg (MAO-B [3]; ip, read-out: inhibition of brain MAO-B activity): 90%
- ED50 (MAO-B [3]; po, 2 h, read-out: IC-50 MAO-B P.O. BRAIN): 0.17 mg/kg
- ED50 (MAO-B [3]; po, 2 h, read-out: IC-50 MAO-B P.O. LIVER): 0.05 mg/kg
- inhibition at 0.5 mg/kg (MAO-B [3]; po, read-out: inhibition of MAO-B): 80%
- Percent relaxation (rabbit jejunum; PAI HCl enantiomer alone 0.2-4.0 µM): 0%
- Percent relaxation (rabbit jejunum; tyramine 40 µM after 0.2 µM PAI HCl enantiomer): 67%
- Percent relaxation (rabbit jejunum; tyramine 40 µM after 2 µM PAI HCl enantiomer): 88%
- Percent relaxation (rabbit jejunum; tyramine 40 µM after 40 µM PAI HCl enantiomer): 85-90%
- inhibition at 2 µM (guinea-pig ileum [4]): 0%
- inhibition at 4 µM (guinea-pig ileum [4]): 0%
- inhibition at 10 µM (guinea-pig ileum [4]): 0%
- inhibition at 40 µM (guinea-pig ileum [4]): 37%
- inhibition at 400 µM (guinea-pig ileum [4]): 100%
- inhibition at 700 µM (guinea-pig ileum [4]): 100%
- DOPAC ([5]; drug alone (PAI isomers […] i.p., deprenyl 5 mg/kg i.p.)): 3.3±0.3 ng/mg protein
- DA ([5]; drug alone (PAI isomers […] i.p., deprenyl 5 mg/kg i.p.), Mean±S.E.M.): 185.0±6.9 ng/mg protein
- DA ([5]; pretreatment one hour before MPTP-HCl 30 mg/kg s.c. (PAI isomers […] i.p., deprenyl 5 mg/kg i.p.), 5 days later): 177.8±14.4 ng/mg protein
- DOPAC ([5]; pretreatment one hour before MPTP-HCl 30 mg/kg s.c., 5 days later): 6.0±0.3 ng/mg protein
- inhibition at 0.1 mg/kg (MAO-B [6]): > 80%
- inhibition at 60 µM (guinea-pig ileum [7]): 25 to 50%
- gram-tension (guinea-pig ileum [8]; bethanechol 0.8 µM, 400 µM PAI HCl enantiomer): 0.2 gram-tension
- gram-tension (guinea-pig ileum [8]; bethanechol 2 µM, 400 µM enantiomer): 0.3 gram-tension
- gram-tension (guinea-pig ileum [8]; bethanechol 4 µM, 400 µM enantiomer): 0.7 gram-tension
- gram-tension (guinea-pig ileum [8]; bethanechol 8 µM, 400 µM enantiomer): 1.0 gram-tension
- gram-tension (guinea-pig ileum [8]; bethanechol 20 µM, 400 µM enantiomer): 2.0 gram-tension
- gram-tension (guinea-pig ileum [8]; bethanechol 40 µM, 400 µM enantiomer): 2.8 gram-tension
- gram-tension (guinea-pig ileum [8]; bethanechol 80 µM, 400 µM enantiomer): 3.1 gram-tension
- gram-tension (guinea-pig ileum [8]; bethanechol 200 µM, 400 µM enantiomer): 4.3 gram-tension
- Percent relaxation (guinea-pig ileum [9]): 25%
- Stereotype Behavior Rating ([10]; control senescent rats, 45 min after amphetamine 0.5 mg/kg s.c.): 126±16
- Stereotype Behavior Rating ([10]; hypoxia lesioned senescent rats): 143±6
